{"source": "patent US20220348870A1", "about": "“MATERIALS AND METHODS FOR MODIFYING THE ACTIVITY OF T CELLS” (Regents of the University of Minnesota, priority 2016, published 2022)", "key": {"human tTreg [1]": {"system": "human tTreg", "experiment": "CFSE in vitro suppression assay (anti-CD3-mediated CD8+ T cell proliferation)", "type": "cell-based", "experimental": "The in vitro-suppressive capacity of expanded tTregs was assessed with a carboxy fluorescein succinimidyl ester (CFSE) inhibition assay as previously published (Hippen et al., Blood, 2008, 112(7):2847-57). Briefly, PBMNCs were purified, labeled with CFSE (Invitrogen), and stimulated with anti-CD3 mAb-coated beads (Dynal) ±cultured tTreg (1:2 to 1:32 tTregs/PBMNCs). On day 4, cells were stained with antibodies to CD4 and CD8, and suppression was determined from the Division Index (FlowJo, TreeStar). nTregs suppressed CD4 and CD8 T cell responses equivalently and only CD8 data are presented."}, "human tTreg [2]": {"system": "human tTreg", "experiment": "Foxp3 expression in expanded tTreg by flow cytometry", "type": "cell-based", "details": "for Foxp3 protein expression at the population level (% Foxp3+CD127−): 50 nM RNA, antagomir vs scrambled P<0.05", "experimental": "(§1) tTreg and CD4+ T-cell cultures, generated as described herein, were frozen on days 14 and 7, respectively. Frozen cells were thawed and re-stimulated with anti-CD3/CD28 mAb-coated Dynabeads (Life Technologies, Carlsbad, Calif.) at 1:3 (cell to bead) ratios in the presence of recombinant IL-2. After 6 days, cultures were washed, re-suspended at 1×10^6 cells/ml, and nanoparticle-encapsulated RNA (50 nM; Scramble/Antagomir, Table 4: EXIQON, Woburn, Mass.) or TRAF6 inhibitor (8 μM, Darmstadt, Germany) or NF-kB inhibitor (PS-1145, 3 μM or 6 μM, Millennium Pharmaceuticals, Cambridge, Mass.) were added. DMSO were vehicles and used as controls. Cells were cultured another 2 days without further manipulation, and were harvested and assayed as listed. For some experiments, tTreg were kept in culture longer (as indicated) without further antagomir addition.\n(§2) Human-specific antibodies used for flow cytometry included: CD4 (RPA-T4), CD8 (RPA-T8), CD25 (M-A251), CD45RA (HI100), IFN-gamma, IL-17a, annexin V (PE), 7-AAD (FITC) were purchased from BD Pharmingen, while Foxp3 (clone 249D) was obtained from BioLegend and Ki67 from eBioscience. For cytokine analysis, cells were pre-treated by PMA, ionomycin and brefeldin A for 6 hours and then stained by different cytokine antibodies. The annexin V (PE)/7-AAD (FITC) were applied to assess the apoptosis of tTreg. Acquisition was performed using a LSRII (BD Bioscience) and data were analyzed using FlowJo software (TreeStar) or IDEA (Admin). Nuclear localization of NF-kB was quantitated using an imaging flow cytometer (Imagestream, Amnis Corp; Seattle, Wash.) by intracellularly staining tTreg with anti-NF-kB (vendor) and, after washing, incubating with DRAQ5 for 15 minutes at 10 μM final concentration."}, "TRAF6": {"system": "TRAF6", "experiment": "TRAF6 mRNA (RT-PCR) and protein (flow cytometry) expression in tTreg", "type": "cell-based, human", "details": "expanded tTregs; for TRAF6 mRNA expression: RT-PCR", "experimental": "as §1\nas §2, with “For cytokine analysis, cells were pre-treated by PMA, ionomycin and brefeldin A for 6 hours and then stained by different cytokine antibodies. The annexin V (PE)/7-AAD (FITC) were applied to assess the apoptosis of tTreg.” left out\n(§3) RNA was extracted from cell pellets using RNeasy Mini Kit with on-column DNase digestion (Qiagen; Hilden, Germany). cDNA synthesis was performed as described in the Expression Analysis Technical Manual (Affymetrix; Santa Clara, Calif.). GAPDH was used as control gene and related gene expression (Bcl-2, Mcl-1, Bcl-xL, BID and BAX; all from IDT, Coralville, Iowa), was analyzed on an Applied Biosystems 7500 Real-Time PCR System using Taqman Universal PCR Master Mix #4304437 and Assay on Demand primer/probe kits (Applied Biosystems; Waltham, Mass.). […]"}, "human tTreg [3]": {"system": "human tTreg", "experiment": "Intracellular IFN-gamma assay after PMA/ionomycin re-stimulation", "type": "cell-based", "details": "final 2 days treatment", "experimental": "as §2"}, "NF-kB": {"system": "NF-kB", "experiment": "NF-kB nuclear localization by imaging flow cytometry", "type": "cell-based, human", "details": "tTreg, 2 days, vs untreated or scramble-treated", "experimental": "as §2\nTRAF6 is critical for TCR-mediated activation of NF-kB, and acts by ubiquitinylating TAK1, leading to activation of IKK and destruction of IkB, which allows NF-kB to translocate to the nucleus. To determine whether miR-146 antagomir enhanced NF-kB nuclear translocation, in vitro expanded tTreg were left untreated or treated for 2 days with scrambled RNA or miR-146b-5p antagomir, stained for CD4, NF-kB and DRAQ5 (a nuclear marker) and analyzed using imaging flow cytometry. […]"}, "miR-146b-5p": {"system": "miR-146b-5p", "experiment": "miR-146b-5p knockdown in expanded tTreg by qRT-PCR", "type": "cell-based, human", "experimental": "as §1, with “For some experiments, tTreg were kept in culture longer (as indicated) without further antagomir addition.” left out\nas §3"}, "control CD4 T-cells": {"system": "control CD4 T-cells", "experiment": "Foxp3 expression and suppressive function of control CD4 T-cells", "type": "cell-based, human", "details": "antagomir for final 2 days", "experimental": "as §1, with “Cells were cultured another 2 days without further manipulation, and were harvested and assayed as listed. For some experiments, tTreg were kept in culture longer (as indicated) without further antagomir addition.” left out\nas §2, with “For cytokine analysis, cells were pre-treated by PMA, ionomycin and brefeldin A for 6 hours and then stained by different cytokine antibodies. The annexin V (PE)/7-AAD (FITC) were applied to assess the apoptosis of tTreg.” left out, “concentration. […]” for “concentration.”"}, "human tTreg [4]": {"system": "human tTreg", "experiment": "tTreg expansion, viability (annexin V/7-AAD) and Ki-67 staining", "type": "cell-based", "experimental": "as §1, §2"}, "human tTreg [5]": {"system": "human tTreg", "experiment": "qRT-PCR of NF-kB-responsive, anti- and pro-apoptotic genes in tTreg", "type": "cell-based", "experimental": "RNA was extracted from cell pellets using RNeasy Mini Kit with on-column DNase digestion (Qiagen; Hilden, Germany). cDNA synthesis was performed as described in the Expression Analysis Technical Manual (Affymetrix; Santa Clara, Calif.). GAPDH was used as control gene and related gene expression (Bcl-2, Mcl-1, Bcl-xL, BID and BAX; all from IDT, Coralville, Iowa), was analyzed on an Applied Biosystems 7500 Real-Time PCR System using Taqman Universal PCR Master Mix #4304437 and Assay on Demand primer/probe kits (Applied Biosystems; Waltham, Mass.). For TLDA assay, TLDA v2.0 was performed on the 7900HT real-time PCR system (Applied Biosystems) according to the manufacturer's protocol. Average delta CT was acquired from the results for further analysis. PCR cycling conditions were performed as follows: 95° C. for 15 s and 60° C. for 1 min, 40 cycles and then 95° C. for 10 min. To normalize RNA input, Human RNU44 (Table 4) small RNA was used as an internal control."}}, "data": [{"molecule": "O=C(Nc1cc(Cl)cc2c1[nH]c1cnccc12)c1cccnc1", "note": "[PS1145, reference compound]", "values": [{"measurement": "in vitro suppressive function", "setting": "human tTreg [1]; tTreg, NF-kB inhibitor, final 2 days", "value": "significantly decreased in vitro suppressive function"}, {"measurement": "Foxp3 expression", "setting": "human tTreg [2]; tTreg, NF-kB inhibitor 3 μM or 6 μM, final 2 days, vs DMSO", "value": "decreased Foxp3 expression in a dose-dependent manner"}]}, {"molecule": "Scramble: nanoparticle-encapsulated scrambled control RNA, TAA CAC GTC TAT ACG CCC A (SEQ ID NO: 1) (TAACACGTCTATACGCCCA; nanoparticle-encapsulated, chemistry not given here) [reference compound]", "values": [{"measurement": "TRAF6 mRNA expression", "setting": "TRAF6", "value": "no effect was observed"}, {"measurement": "Foxp3 protein expression at the population level (% Foxp3+CD127−)", "setting": "human tTreg [2]; tTreg, final 2 days", "value": "73.1%±4.6%"}]}, {"molecule": "miR-146b-5p antagomir: nanoparticle-encapsulated antagomir RNA (EXIQON), AGCCTATGGAATTCAGTTCTC (SEQ ID NO: 2) (AGCCTATGGAATTCAGTTCTC; nanoparticle-encapsulated Exiqon antagomir, chemistry not given here)", "values": [{"measurement": "IFN-gamma expression in expanded tTregs", "setting": "human tTreg [3]", "value": "expression was not affected"}, {"measurement": "TRAF6 mRNA expression", "setting": "TRAF6", "value": "significantly higher TRAF6 mRNA expression"}, {"measurement": "TRAF6 protein expression", "setting": "TRAF6; flow cytometry, vs untreated or scramble-treated", "value": "significantly enhanced TRAF6 protein expression"}, {"measurement": "NF-kB/DRAQ5 similarity score (nuclear localization)", "setting": "NF-kB", "value": "significantly higher similarity scores"}, {"measurement": "miR-146b expression reduced", "setting": "miR-146b-5p; day 8 after a single antagomir treatment (not shown)", "value": 70, "unit": "%"}, {"measurement": "miR-146b-5p knockdown efficiency", "setting": "miR-146b-5p; tTreg, nanoparticle-encapsulated antagomir 50 nM, 2 days, qRT-PCR", "value": "> 95", "unit": "%"}, {"measurement": "FoxP3 expression in control CD4 T-cells", "setting": "control CD4 T-cells", "value": "no effect on FoxP3 expression"}, {"measurement": "suppressive function of control CD4 T-cells", "setting": "control CD4 T-cells", "value": "no effect on FoxP3 expression or suppressive function"}, {"measurement": "suppressive function", "setting": "human tTreg [1]; day 8 after single treatment", "value": "maintained their higher Foxp3 expression and suppressive function"}, {"measurement": "increase in efficacy of tTreg suppressive function", "setting": "human tTreg [1]; tTreg:PBMC 1:8 to 1:32, antagomir-treated at 1:16 as suppressive as scramble-treated at 1:8", "value": "~2", "unit": "fold"}, {"measurement": "tTreg viability", "setting": "human tTreg [4]; 2 days treatment, annexin V/7-AAD", "value": "increased viability"}, {"measurement": "Ki67 MFI level", "setting": "human tTreg [4]; 2 days treatment, n=5", "value": "higher relative Ki67 MFI level"}, {"measurement": "tTreg expansion", "setting": "human tTreg [4]; day 8 post single treatment, vs untreated or scrambled RNA", "value": "expanded significantly more"}, {"measurement": "tTreg expansion", "setting": "human tTreg [4]; initial 2 day treatment period", "value": "no significant difference in expansion"}, {"measurement": "Foxp3 expression", "setting": "human tTreg [2]; day 8 after single treatment", "value": "maintained their higher Foxp3 expression"}, {"measurement": "Foxp3 protein expression at the population level (% Foxp3+CD127−)", "setting": "human tTreg [2]; tTreg, final 2 days", "value": "85.5%±3.5%"}, {"measurement": "Foxp3 protein expression at per-cell level", "setting": "human tTreg [2]; tTreg, 2 days, compared to scrambled group", "value": "increased Foxp3 protein expression"}, {"measurement": "Bcl-xL expression", "setting": "human tTreg [5]; anti-apoptotic gene, tTreg", "value": "increased expression"}, {"measurement": "Mcl-1 expression", "setting": "human tTreg [5]; anti-apoptotic gene, tTreg", "value": "increased expression"}, {"measurement": "c-myc expression increase", "setting": "human tTreg [5]; over untreated or scramble-treated tTreg", "value": "> 3", "unit": "fold"}, {"measurement": "BAX expression", "setting": "human tTreg [5]; pro-apoptotic gene, tTreg", "value": "decreased expression"}, {"measurement": "BID expression", "setting": "human tTreg [5]; pro-apoptotic gene, tTreg", "value": "decreased expression"}]}]}
